Drawing on patent US7541339B2, “Par-2-activating peptide derivative and pharmaceutical composition using the same” (The University of Edinburgh, priority 2002, dated 2009), this text covers EC50 for four compounds.

Like-named read-outs stand apart in the source and are kept apart here. Peptide text beside a SMILES is read from it. * marks the point of attachment. 2Furoyl = O=C(c1ccco1)*

For this experiment, the target named is T1, human PAR-2 (Homo sapiens, UniProt P55085).
T1 construct: Human colorectal adenocarcinoma cell line, HCT-15, expressing endogenous PAR-2 at high levels; endogenous in cells; host or cells: HCT-15 (human colorectal adenocarcinoma)
T1 sequence (P55085 26-397): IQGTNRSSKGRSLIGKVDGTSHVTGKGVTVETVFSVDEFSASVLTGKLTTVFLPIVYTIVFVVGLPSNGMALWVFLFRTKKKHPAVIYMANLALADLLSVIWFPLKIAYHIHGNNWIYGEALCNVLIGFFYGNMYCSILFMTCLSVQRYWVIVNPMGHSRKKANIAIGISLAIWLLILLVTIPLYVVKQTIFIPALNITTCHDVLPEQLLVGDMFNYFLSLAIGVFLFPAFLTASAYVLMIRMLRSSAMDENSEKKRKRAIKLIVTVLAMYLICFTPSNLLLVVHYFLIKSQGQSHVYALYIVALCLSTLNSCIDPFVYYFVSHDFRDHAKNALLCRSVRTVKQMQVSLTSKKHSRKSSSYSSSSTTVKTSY
The experiment in a line: PAR-2 activation potency: intracellular calcium mobilization assay (modified Hawthorne's method) in HCT-15 cells. In kind it is cell-based. The source says: PAR-2 activation with the peptide derivative represented by the general formula (I) in accordance with the invention can be tested by various known methods. For example, the Hollenberg's method (Hollenberg, M. D., et al., Can. J. Physiol. Pharmacol., 75, 832-841 (1997)), the Kawabata's method (Kawabata, A., et al., J. Pharmacol. Exp. Ther., 288, 358-370 (1999)) and the Hawthorne's method (Howthorne et al., A High-Throughput Microtiter Plate-Based Calcium Assay for the Study of Protease-Activated Receptor 2 Activation, Analytical Biochemistry 290, 378-379 (2001)) may be used for the test.
The inventors tested the PAR-2 activation potency according to the modified Hawthorne's method. In brief, that is the assay of the calcium mobilization in cells endogenously expressing human PAR-2. In this assay, cells were loaded with Fluorescent Ca2+ indicator dye in presence of Probenecid, an inhibitor of anion exchange transporter, and stimulated with agonists. The agonist-mediated intracellular calcium mobilization was measured using multiwell plate reader.
Human colorectal adenocarcinoma cell line, HCT-15, expressing endogenous PAR-2 at high levels were seeded in 96-well black wall clear bottom plates and subconfluent cells were loaded with Fluorescent Ca2+ indicator dye (Calcium Plus Assay Reagent, Molecular Devices) in serum free medium (RPMI) containing 2.5 mM Probenecid and incubated for 1 hr at 37 C. Then cells were stimulated with various concentrations of test compounds and fluorescent change was determined at wave length of 485 nm for excitation and 525 nm for emission (Cutoff 515 nm) using multiwell scanning fluorometer (FlexStation, Molecular Devices).
SLIGKV-OH (SEQ ID NO: 2) as a known PAR-2 activation peptide was used as a comparative compound, and the results are shown below in Table 1.

Take `CC[C@H](C)[C@H](NC(=O)[C@H](CC(C)C)NC(=O)c1ccco1)C(=O)NCC(=O)N[C@@H](CCCCN)C(=O)N[C@H](C(=O)O)C(C)C` [Example 6] (2Furoyl-LIGKV-OH; C-terminus assumed): the 50% effective concentration (EC50) was 1.68 µM.

`CC[C@H](C)[C@H](NC(=O)[C@H](CC(C)C)NC(=O)c1ccco1)C(=O)NCC(=O)N[C@@H](CCCCN)C(=O)N[C@H](C(N)=O)C(C)C` [Example 16] (2Furoyl-LIGKV-NH2; C-terminus assumed): the EC50 is 0.32 µM.

In the case of `CC[C@H](C)[C@H](NC(=O)[C@H](CC(C)C)NC(=O)c1ccco1)C(=O)NCC(=O)N[C@@H](CCCNC(=N)N)C(=O)N[C@@H](CC(C)C)C(=O)O` [Example 18], the EC50 turned out to be 1.21 µM.

As to “H-SLIGKV-OH [SLIGKV-OH, reference compound]”, the concentration giving a half-maximal response (EC50) (HCT-15 cells expressing endogenous PAR-2, fluorescent Ca2+ indicator dye, 2.5 mM Probenecid, read-out: Agonist Activity (EC50)) amounted to 22.8 µM.
